# Test results from ChEMBL document CHEMBL1201862, “PubChem BioAssay data set” (2004).
#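 Values below derive from 48-hour exposures of cells grown in 96-well plates, with endpoints linearly interpolated between the two concentrations bracketing the appropriate inhibition level. Abbreviation: GI50, concentration required for 50% inhibition of growth.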 Activity calls are given as the source filed them. Cut-off read from the data, not from the text of the source: active = GI50 up to about 1.1 µM and inactive = higher.
# Assays:
# Assay in all cases: NCI tumour cell line growth inhibition, 48 h
# SK-MEL-5 = system: SK-MEL-5
# M14 = system: M14
# U-251 = system: U-251
# HT-29 = system: HT-29
# K562 = system: K562
# SK-MEL-28 = system: SK-MEL-28
# UACC-62 = system: UACC-62
# SF-539 = system: SF-539
# RPMI-8226 = system: RPMI-8226
# SF-295 = system: SF-295
# HCT-116 = system: HCT-116
# SNB-75 = system: SNB-75
# ACHN = system: ACHN
# RXF 393 = system: RXF 393
# SW-620 = system: SW-620
# NCI-H226 = system: NCI-H226
# A498 = system: A498
# MOLT-4 = system: MOLT-4
# HCT-15 = system: HCT-15
# SK-MEL-2 = system: SK-MEL-2
SMILES,GI50 (SK-MEL-5),GI50 (M14),GI50 (U-251),GI50 (HT-29),GI50 (K562),GI50 (SK-MEL-28),GI50 (UACC-62),GI50 (SF-539),GI50 (RPMI-8226),GI50 (SF-295),GI50 (HCT-116),GI50 (SNB-75),GI50 (ACHN),GI50 (RXF 393),GI50 (SW-620),GI50 (NCI-H226),GI50 (A498),GI50 (MOLT-4),GI50 (HCT-15) [µM],GI50 (SK-MEL-2)
Cc1c(OC(C)C(=O)O)ccc2c(-c3ccccc3)cc(=O)oc12 (stereo unspecified),> 100 µM (inactive),> 100 µM (inactive),> 100 µM (inactive),> 100 µM (inactive),> 100 µM (inactive),> 100 µM (inactive),> 100 µM (inactive),> 100 µM (inactive),> 100 µM (inactive),> 100 µM (inactive),> 100 µM (inactive),> 100 µM (inactive),> 100 µM (inactive),> 100 µM (inactive),> 100 µM (inactive),> 100 µM (inactive),> 100 µM (inactive),> 100 µM (inactive),–,–
COc1ccc(-c2cs/c(=N\c3ccccc3)n2CCCN(C)C)cc1,–,10.7 µM (inactive),43.4 µM (inactive),–,–,18.2 µM (inactive),15.1 µM (inactive),13.6 µM (inactive),24.5 µM (inactive),13 µM (inactive),–,4.44 µM (inactive),21.8 µM (inactive),12.2 µM (inactive),> 10 µM (inactive),18.2 µM (inactive),22 µM (inactive),16.5 µM (inactive),24.8,19.8 µM (inactive)
Cc1cc(C)nc(NS(=O)(=O)c2ccc(NC(=O)c3cccc4c(Nc5ccc(S(=O)(=O)Nc6cc(C)on6)cc5)c5ccccc5nc34)cc2)n1,–,22.7 µM (inactive),18.4 µM (inactive),22.2 µM (inactive),28.7 µM (inactive),20.7 µM (inactive),20.3 µM (inactive),17.1 µM (inactive),–,–,25.9 µM (inactive),23.3 µM (inactive),38.6 µM (inactive),20.1 µM (inactive),–,–,23.8 µM (inactive),25.4 µM (inactive),–,19.5 µM (inactive)
CC1(Br)S(=O)(=O)OCCOS1(=O)=O,> 100 µM (inactive),> 100 µM (inactive),> 100 µM (inactive),> 100 µM (inactive),> 100 µM (inactive),> 100 µM (inactive),> 100 µM (inactive),> 100 µM (inactive),> 100 µM (inactive),> 100 µM (inactive),> 100 µM (inactive),> 100 µM (inactive),> 100 µM (inactive),> 100 µM (inactive),> 100 µM (inactive),> 100 µM (inactive),> 100 µM (inactive),> 100 µM (inactive),> 100,> 100 µM (inactive)
C=CCCON(C(=O)OC(C)(C)C)c1ccccc1,> 100 µM (inactive),> 100 µM (inactive),> 100 µM (inactive),47.9 µM (inactive),> 100 µM (inactive),> 100 µM (inactive),> 100 µM (inactive),> 100 µM (inactive),6.44 µM (inactive),> 100 µM (inactive),44.6 µM (inactive),82.6 µM (inactive),> 100 µM (inactive),> 100 µM (inactive),> 100 µM (inactive),> 100 µM (inactive),> 100 µM (inactive),42.6 µM (inactive),> 100,> 100 µM (inactive)
O=C1C(Cl)C2(CC(/C=C/c3cccs3)=NN2c2cccc(S(=O)(=O)O)c2)N1c1nc2ccccc2s1 (stereo unspecified),16.9 µM (inactive),99.3 µM (inactive),99.8 µM (inactive),73.5 µM (inactive),35.6 µM (inactive),> 100 µM (inactive),59.6 µM (inactive),> 100 µM (inactive),47 µM (inactive),–,> 100 µM (inactive),49.9 µM (inactive),58.3 µM (inactive),> 100 µM (inactive),> 100 µM (inactive),27.9 µM (inactive),76.2 µM (inactive),31.5 µM (inactive),75.9,> 100 µM (inactive)
C#CCN(Cc1ccc2nc(-c3ccccc3)c(Cl)nc2c1)c1ccc(F)cc1,23.1 µM (inactive),> 100 µM (inactive),> 100 µM (inactive),61.9 µM (inactive),–,> 100 µM (inactive),> 100 µM (inactive),> 100 µM (inactive),39.7 µM (inactive),> 100 µM (inactive),> 100 µM (inactive),> 100 µM (inactive),71.9 µM (inactive),–,> 100 µM (inactive),–,> 100 µM (inactive),0.767 µM (active),87.1,> 100 µM (inactive)
COc1nc(N=P(c2ccccc2)(c2ccccc2)c2ccccc2)cc(=O)n1C,> 100 µM (inactive),> 100 µM (inactive),> 100 µM (inactive),> 100 µM (inactive),> 100 µM (inactive),> 100 µM (inactive),> 100 µM (inactive),> 100 µM (inactive),> 100 µM (inactive),> 100 µM (inactive),> 100 µM (inactive),54.8 µM (inactive),> 100 µM (inactive),> 100 µM (inactive),> 100 µM (inactive),> 100 µM (inactive),> 100 µM (inactive),> 100 µM (inactive),> 100,> 100 µM (inactive)
COc1cc(C(C)c2cc3c(cc2OCCOCCOc2cc4c(cc2C(C)c2cc(OC)c(OC)c(OC)c2)OCO4)OCO3)cc(OC)c1OC (stereo unspecified),89.1 µM (inactive),> 10 µM (inactive),> 10 µM (inactive),> 10 µM (inactive),36.1 µM (inactive),> 10 µM (inactive),> 10 µM (inactive),> 10 µM (inactive),> 100 µM (inactive),46.7 µM (inactive),> 10 µM (inactive),19.1 µM (inactive),> 10 µM (inactive),> 10 µM (inactive),> 10 µM (inactive),> 10 µM (inactive),> 10 µM (inactive),> 10 µM (inactive),> 10,> 10 µM (inactive)
Brc1cc(CCOC2CCCCO2)c(-c2sccc2CCOC2CCCCO2)s1 (stereo unspecified),26.9 µM (inactive),31.8 µM (inactive),57.8 µM (inactive),61.8 µM (inactive),13.8 µM (inactive),> 95.1 µM (inactive),58.5 µM (inactive),55.5 µM (inactive),23.9 µM (inactive),18.7 µM (inactive),23.2 µM (inactive),43.5 µM (inactive),50.8 µM (inactive),0.8 µM (active),> 65.8 µM (inactive),> 100 µM (inactive),> 69 µM (inactive),22.2 µM (inactive),33.3,27.4 µM (inactive)
Cn1c(=O)c(Cl)c(N=[N+]=[N-])c2ccccc21,65.5 µM (inactive),–,> 100 µM (inactive),> 100 µM (inactive),47.1 µM (inactive),> 100 µM (inactive),68.1 µM (inactive),> 100 µM (inactive),–,> 100 µM (inactive),93.8 µM (inactive),25.8 µM (inactive),85.7 µM (inactive),69.2 µM (inactive),> 100 µM (inactive),39.8 µM (inactive),> 100 µM (inactive),23.3 µM (inactive),> 100,> 100 µM (inactive)
CCOC(=O)CCC1(C(=O)OCC)CCCCC1=O (stereo unspecified),> 100 µM (inactive),–,> 100 µM (inactive),> 100 µM (inactive),> 100 µM (inactive),> 100 µM (inactive),–,> 100 µM (inactive),> 100 µM (inactive),> 100 µM (inactive),> 100 µM (inactive),> 100 µM (inactive),> 100 µM (inactive),> 100 µM (inactive),> 100 µM (inactive),–,> 100 µM (inactive),> 100 µM (inactive),–,> 100 µM (inactive)
C=CCNC(=O)N(CCC)CCCC(NC(C)=O)C(=O)NCc1ccccc1 (stereo unspecified),> 100 µM (inactive),> 100 µM (inactive),> 100 µM (inactive),> 100 µM (inactive),> 100 µM (inactive),> 100 µM (inactive),> 100 µM (inactive),> 100 µM (inactive),> 100 µM (inactive),> 100 µM (inactive),–,> 100 µM (inactive),> 100 µM (inactive),> 100 µM (inactive),> 100 µM (inactive),79.1 µM (inactive),> 100 µM (inactive),> 100 µM (inactive),> 100,> 100 µM (inactive)
O=c1oc2ccc(-n3c(=O)c4ccccc4c4ccccc4c3=O)cc2c2ccccc12,> 100 µM (inactive),> 100 µM (inactive),20.8 µM (inactive),> 100 µM (inactive),> 100 µM (inactive),> 100 µM (inactive),64.6 µM (inactive),> 100 µM (inactive),> 100 µM (inactive),> 100 µM (inactive),> 100 µM (inactive),27 µM (inactive),> 100 µM (inactive),85.1 µM (inactive),> 100 µM (inactive),> 100 µM (inactive),> 100 µM (inactive),> 100 µM (inactive),> 100,28.3 µM (inactive)
COC1=CC(=O)[C@@]2(C)C(C)[C@H](c3ccccc3)[C@H]2C1=O (stereo partly specified),> 100 µM (inactive),> 100 µM (inactive),> 100 µM (inactive),> 100 µM (inactive),> 100 µM (inactive),> 100 µM (inactive),> 100 µM (inactive),> 100 µM (inactive),> 100 µM (inactive),> 100 µM (inactive),–,> 100 µM (inactive),> 100 µM (inactive),> 100 µM (inactive),> 100 µM (inactive),> 100 µM (inactive),> 100 µM (inactive),> 100 µM (inactive),> 100,> 100 µM (inactive)
